Data: US20210000981A1, “CONJUGATED POLYCATIONIC POLYMERS, METHODS OF USING THE SAME AND METHODS OF TREATING AUTOIMMUNE DISEASES, INFECTIOUS DISEASES AND ACUTE RADIATION EXPOSURE” (Duke University, priority 2015, published 2021)

Columns and labels:
[1] = test system: NA-sensing TLRs (TLR3, 7, 8 and 9); assay: Inhibition of nucleic acid based TLR agonists by NASs; details: in vitro and in vivo
NZBW F1 mice = details: mouse, in vivo
TLR = TLR reporter cell assays with DNA-polymer complex and LMWH; assay type: cell-based
Procedure: (§1) DNA in plasmid form was bound to PAMAM-G3 via co-incubation at room temperature. […] LMWH displacement was executed at 60° C. with agitation of the DNA-polymer complex.

DNA in plasmid form = assay: Plasmid DNA binding and LMWH displacement, agarose gel; details: 60° C. with agitation
Procedure: Using the biotinylated form of the polymer we have established a protocol to displace the DAMPs that are bound to the polymer using low-molecular weight heparin (LMWH). This method was validated by electrophoretic mobility shift assay (EMSA) and TLR stimulation.
as §1

protamine sulfate
activities of nucleic acid based TLR agonists (CpG oligos, Poly I:C, ssRNA40/LyoVec) [1]: counteract the activities of multiple nucleic acid based TLR agonists in vitro and in vivo

[NH2(CH2)2NH2]:(G=3); dendri PAMAM(NH2)32 [PAMAM-G3]
maximum tolerated dose (MTD) (NZBW F1 mice): 100 to 200 mg/kg

low-molecular weight heparin [LMWH]
TLR activation after displacement of DNA from polymer (TLR): elevated TLR activation | TLR activation, alone (TLR): no activation alone | displacement of DNA from DNA-polymer complex (DNA in plasmid form): Displacement of the DNA was also verified
